Test results as given in PubChem BioAssay AID1963982 (Molecular Pharmacology Branch, DTP, NCI, 2024).
One block for each compound: values may come before it.

Tested on: 313798-341-R-J2-PDC spheroids, viability
Test: Anticancer human tumor 313798-341-R-J2-PDC patient-derived cervical squamous cell carcinoma cell line growth inhibition [PI3K]
Conditions: spheroids with HUVEC and MSC; for IC50: curve of first compound; for viability, T/C: stronger effect = lower value
Summary of the method: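 Multi-cell spheroids combine tumor cells with HUVEC and human MSCs, treated with targeted agents alone or with inavolisib, alpelisib, duvelisib or copanlisib. Concentrations fall in half-log steps from at or near clinical Cmax, or from 10 microM where Cmax is unknown; viability read-out.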

[1] = second compound 0.00316 µM, first compound 0.00316 µM
[2] = second compound 0.00316 µM, first compound 0.01 µM
[3] = second compound 0.00316 µM, first compound 0.0316 µM
[4] = second compound 0.00316 µM, first compound 0.1 µM
[5] = second compound 0.01 µM, first compound 0.00316 µM
[6] = second compound 0.01 µM, first compound 0.01 µM
[7] = second compound 0.01 µM, first compound 0.0316 µM
[8] = second compound 0.01 µM, first compound 0.1 µM
[9] = second compound 0.0316 µM, first compound 0.00316 µM
[10] = second compound 0.0316 µM, first compound 0.01 µM
[11] = second compound 0.0316 µM, first compound 0.0316 µM
[12] = second compound 0.0316 µM, first compound 0.1 µM
[13] = second compound 0.0316 µM, first compound 0.316 µM
[14] = second compound 0.0316 µM, first compound 1 µM
[15] = second compound 0.1 µM, first compound 0.00316 µM
[16] = second compound 0.1 µM, first compound 0.01 µM
[17] = second compound 0.1 µM, first compound 0.0316 µM
[18] = second compound 0.1 µM, first compound 0.1 µM
[19] = second compound 0.1 µM, first compound 0.316 µM
[20] = second compound 0.1 µM, first compound 1 µM
[21] = second compound 0.316 µM, first compound 0.00316 µM
[22] = second compound 0.316 µM, first compound 0.01 µM
[23] = second compound 0.316 µM, first compound 0.0316 µM
[24] = second compound 0.316 µM, first compound 0.1 µM
[25] = second compound 0.316 µM, first compound 0.316 µM
[26] = second compound 0.316 µM, first compound 1 µM
[27] = second compound 1 µM, first compound 0.00316 µM
[28] = second compound 1 µM, first compound 0.01 µM
[29] = second compound 1 µM, first compound 0.0316 µM
[30] = second compound 1 µM, first compound 0.1 µM
[31] = second compound 1 µM, first compound 0.316 µM
[32] = second compound 1 µM, first compound 1 µM
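Note: spheroids exposed to compounds for seven days.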
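Throughout, for viability, T/C: 100% = DMSO vehicle control viability.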

- IC50 (second compound 0.00316 µM): > 1 µM
- IC50 (second compound 0.01 µM): > 1 µM
- IC50 (second compound 0.0316 µM): > 1 µM
- IC50 (second compound 0.1 µM): < 0.00316 µM
- IC50 (second compound 0.316 µM): < 0.00316 µM
- IC50 (second compound 1 µM): < 0.00316 µM
SMILES: CCN1CCN(Cc2ccc(Nc3ncc(F)c(-c4cc(F)c5nc(C)n(C(C)C)c5c4)n3)nc2)CC1 + COc1c(OCCCN2CCOCC2)ccc2c3n(c(=NC(=O)c4cnc(N)nc4)nc12)CCN3
- viability, T/C [1]: 99.7%
- viability, T/C [2]: 102%
- viability, T/C [3]: 117%
- viability, T/C [4]: 111%
- viability, T/C (second compound 0.00316 µM, first compound 0.316 µM): 119%
- viability, T/C (second compound 0.00316 µM, first compound 1 µM): 105%
- viability, T/C [5]: 98.6%
- viability, T/C [6]: 91%
- viability, T/C [7]: 99%
- viability, T/C [8]: 125%
- viability, T/C (second compound 0.01 µM, first compound 0.316 µM): 113%
- viability, T/C (second compound 0.01 µM, first compound 1 µM): 102%
- viability, T/C [9]: 83.7%
- viability, T/C [10]: 86.6%
- viability, T/C [11]: 77.3%
- viability, T/C [12]: 80.7%
- viability, T/C [13]: 90%
- viability, T/C [14]: 80%
- viability, T/C [15]: 43.1%
- viability, T/C [16]: 44%
- viability, T/C [17]: 43.4%
- viability, T/C [18]: 36.6%
- viability, T/C [19]: 41.9%
- viability, T/C [20]: 45.9%
- viability, T/C [21]: 13.6%
- viability, T/C [22]: 15.5%
- viability, T/C [23]: 14.5%
- viability, T/C [24]: 16.4%
- viability, T/C [25]: 19.8%
- viability, T/C [26]: 30%
- viability, T/C [27]: 11.4%
- viability, T/C [28]: 14.3%
- viability, T/C [29]: 13.9%
- viability, T/C [30]: 11.7%
- viability, T/C [31]: 18.3%
- viability, T/C [32]: 27.4%

- IC50 (second compound 0.0316 µM): > 10 µM
- IC50 (second compound 0.1 µM): > 10 µM
- IC50 (second compound 0.316 µM): > 10 µM
- IC50 (second compound 1 µM): > 10 µM
- IC50 (second compound 3.16 µM): 5.98 µM
- IC50 (second compound 10 µM): < 0.0316 µM
SMILES: Cn1nccc1Nc1nccc(-c2ccn(C(CO)c3ccc(Cl)c(F)c3)c(=O)c2)n1 (stereo unspecified) + Cc1nc(NC(=O)N2CCCC2C(N)=O)sc1-c1ccnc(C(C)(C)C(F)(F)F)c1
- viability, T/C [11]: 102%
- viability, T/C [12]: 90%
- viability, T/C [13]: 92.9%
- viability, T/C [14]: 102%
- viability, T/C (second compound 0.0316 µM, first compound 3.16 µM): 102%
- viability, T/C (second compound 0.0316 µM, first compound 10 µM): 109%
- viability, T/C [17]: 95.7%
- viability, T/C [18]: 103%
- viability, T/C [19]: 99%
- viability, T/C [20]: 103%
- viability, T/C (second compound 0.1 µM, first compound 3.16 µM): 113%
- viability, T/C (second compound 0.1 µM, first compound 10 µM): 106%
- viability, T/C [23]: 97.4%
- viability, T/C [24]: 102%
- viability, T/C [25]: 103%
- viability, T/C [26]: 98.8%
- viability, T/C (second compound 0.316 µM, first compound 3.16 µM): 109%
- viability, T/C (second compound 0.316 µM, first compound 10 µM): 103%
- viability, T/C [29]: 88.8%
- viability, T/C [30]: 81.3%
- viability, T/C [31]: 91.9%
- viability, T/C [32]: 90.4%
- viability, T/C (second compound 1 µM, first compound 3.16 µM): 89.4%
- viability, T/C (second compound 1 µM, first compound 10 µM): 71.3%
- viability, T/C (second compound 3.16 µM, first compound 0.0316 µM): 57.9%
- viability, T/C (second compound 3.16 µM, first compound 0.1 µM): 60.4%
- viability, T/C (second compound 3.16 µM, first compound 0.316 µM): 55.7%
- viability, T/C (second compound 3.16 µM, first compound 1 µM): 56.5%
- viability, T/C (second compound 3.16 µM, first compound 3.16 µM): 52.9%
- viability, T/C (second compound 3.16 µM, first compound 10 µM): 45.4%
- viability, T/C (second compound 10 µM, first compound 0.0316 µM): 35.4%
- viability, T/C (second compound 10 µM, first compound 0.1 µM): 22.1%
- viability, T/C (second compound 10 µM, first compound 0.316 µM): 31.6%
- viability, T/C (second compound 10 µM, first compound 1 µM): 26.8%
- viability, T/C (second compound 10 µM, first compound 3.16 µM): 29.2%
- viability, T/C (second compound 10 µM, first compound 10 µM): 24.1%

SMILES: CC1(C)CCC(Nc2ncc(C(F)(F)F)c(-c3c[nH]c4c(P(C)(C)=O)c(C#N)ccc34)n2)CN1 (stereo unspecified)
- viability, T/C (compound 0.0316 µM): 56.6% [middle of 4 runs]
- viability, T/C (compound 0.1 µM): 46.7% [middle of 4 runs]
- viability, T/C (compound 0.316 µM): 50.4% [middle of 4 runs]
- viability, T/C (compound 1 µM): 53.8% [middle of 4 runs]
- viability, T/C (compound 3.16 µM): 58.9% [middle of 4 runs]

- IC50 (second compound 0.00316 µM): > 0.1 µM
- IC50 (second compound 0.01 µM): > 0.1 µM
- IC50 (second compound 0.0316 µM): > 0.1 µM
- IC50 (second compound 0.1 µM): > 0.1 µM
- IC50 (second compound 0.316 µM): > 0.1 µM
- IC50 (second compound 1 µM): 0.0225 µM
SMILES: Cn1ncnc1[C@H]1c2n[nH]c(=O)c3cc(F)cc(c23)N[C@@H]1c1ccc(F)cc1 + CC(Nc1ccc2c(c1)OCCn1cc(N3C(=O)OCC3C(F)F)nc1-2)C(N)=O
- viability, T/C (second compound 0.00316 µM, first compound 0.000316 µM): 104%
- viability, T/C (second compound 0.00316 µM, first compound 0.001 µM): 96.2%
- viability, T/C [1]: 99.1%
- viability, T/C [2]: 98.1%
- viability, T/C [3]: 94.9%
- viability, T/C [4]: 84.7%
- viability, T/C (second compound 0.01 µM, first compound 0.000316 µM): 95.7%
- viability, T/C (second compound 0.01 µM, first compound 0.001 µM): 104%
- viability, T/C [5]: 88.5%
- viability, T/C [6]: 93.5%
- viability, T/C [7]: 92.8%
- viability, T/C [8]: 83.5%
- viability, T/C (second compound 0.0316 µM, first compound 0.000316 µM): 107%
- viability, T/C (second compound 0.0316 µM, first compound 0.001 µM): 102%
- viability, T/C [9]: 115%
- viability, T/C [10]: 106%
- viability, T/C [11]: 100%
- viability, T/C [12]: 100%
- viability, T/C (second compound 0.1 µM, first compound 0.000316 µM): 102%
- viability, T/C (second compound 0.1 µM, first compound 0.001 µM): 102%
- viability, T/C [15]: 91.7%
- viability, T/C [16]: 89%
- viability, T/C [17]: 96.9%
- viability, T/C [18]: 72.8%
- viability, T/C (second compound 0.316 µM, first compound 0.000316 µM): 77.2%
- viability, T/C (second compound 0.316 µM, first compound 0.001 µM): 78%
- viability, T/C [21]: 78.3%
- viability, T/C [22]: 73.6%
- viability, T/C [23]: 71.3%
- viability, T/C [24]: 58.1%
- viability, T/C (second compound 1 µM, first compound 0.000316 µM): 57.5%
- viability, T/C (second compound 1 µM, first compound 0.001 µM): 57%
- viability, T/C [27]: 58.3%
- viability, T/C [28]: 48.1%
- viability, T/C [29]: 52.1%
- viability, T/C [30]: 38.1%
